Patent US20070249709A1, “Crystal forms of (S)-(8(2,6-dichlorophenyl)-6-fluoro-2,3-dihydro benzo[b][1,4]dioxin-2-yl)methanamine hydrochloride salt” (Wyeth, priority 2006, published 2007)
“Also recorded” adds a separate entry of the source. Where a name gives a salt, the structure may show the parent alone.

Experiments:
Assay type in all cases: physicochemical
[1] = Solution mediated transformation (reslurry stability experiments at 25° C.); conditions: for Stability on slurrying (summary of Table 6): water or organic solvent, hydrochloride
Text: The mixtures were then filtered and the solids obtained were characterized by one or more methods of XRPD, DSC and TGA.

[2] = Thermal stability of crystal forms under vacuum and 50° C.; conditions: vacuum
Protocol: Forms I, II and III were placed in oven at 50° C. and under vacuum to assess their thermal stability.

Grinding test = conditions: manually ground, ambient conditions; hydrochloride
Text: Samples of Form I and Form II were manually ground and the resulting powders were characterized by one or more methods of XRPD, DSC and TGA.

[3] = Hygroscopicity by dynamic vapor sorption (DVS); conditions: for Reversibility of DVS mass change / Crystal form stability at high humidity (DVS): hydrochloride; for Crystal form stability at high humidity (DVS): high RH
Text: The hygroscopicity (the ability to absorb water vapor from the surrounding atmosphere) of Forms I and II was explored by dynamic vapor sorption (DVS) experiments. […] When RH was scanned from 70% to 100%, significant mass change was observed (up to about 4.5%). […] When RH continued to be scanned from 50% to 0%, the sample lost water (weight). […] A second cycle of scanning indicated a new absorption behavior when RH was raised from 50% to 100%.
The starting RH was about 50%, and only about 1% of mass change was observed when RH was scanned to 100% RH. When RH was scanned back to 50%, the mass change appeared reversible. The mass change was very slow when RH continued to be scanned from 50% to 10%. When RH was scanned from 10% to 0%, the sample lost about 2.7% of mass (water).

[4] = Slurry of a mixture of Form I and Form III in a solvent, crystal form by XRPD/DSC; conditions: for Final Form, Slurry @ RT: about 2 days
Protocol: A mixture of Form I and Form III (2θ-50 wt % of Form III) was slurried in a solvent (see Table 5) with stirring at room temperature for about 2 days. The slurry was then filtered at room temperature. The solid was dried at 50° C. under vacuum for overnight. The solid obtained by the filtration was characterized by XRPD both before and after the drying at 50° C.

[5] = Heating of a mixture of Form I and Form III
Protocol: A mixture of Form I and Form III (2θ-50 wt % of Form III) was heated to 110° C. at ambient pressure and kept at this temperature and pressure for 4 hours.
A mixture of Form I and Form III (2θ-50 wt % of Form III) was placed in an oven at 50° C. and under vacuum for 72 hours.

[6] = RH scanned from 100% back to 50%, room temperature

## NC[C@H]1COc2cc(F)cc(-c3c(Cl)cccc3Cl)c2O1 [Form I, (S)-(8-(2,6-dichlorophenyl)-6-fluoro-2,3-dihydrobenzo[b][1,4]dioxin-2-yl)methanamine hydrochloride]
[1]
  Stability on slurrying (summary of Table 6): stable in organic solvents
[2]
  Relative thermal stability (retention of crystal lattice integrity): more stable than Form III
[2]; 48 hr
  Final Form: Form I
Grinding test
  Solid form After grinding: some of Form I is changed into Form III
[3]; RH from about 50% to 70%, room temperature (FIG. 3)
  DVS mass change: little mass change
[3]; RH raised from 0% only to about 70% (FIG. 4)
  Water absorption (DVS): absorbed very little water
[3]; RH scanned from 70% to 100%, room temperature
  DVS mass change: up to 4.5%
[3]; [6]
  DVS mass change remaining: about 2.7%
  Reversibility of DVS mass change: substantially irreversible
[3]; room temperature
  Crystal form stability at high humidity (DVS): may be converted into another form at high RH

## NC[C@H]1COc2cc(F)cc(-c3c(Cl)cccc3Cl)c2O1 [Form II, (S)-(8-(2,6-dichlorophenyl)-6-fluoro-2,3-dihydrobenzo[b][1,4]dioxin-2-yl)methanamine hydrochloride]
[1]; reslurry in tBME, 30 mins
  Final form, Sample from wet filter cake: I + II
[1]
  Stability on slurrying (summary of Table 6): stable in water
[2]
  Relative thermal stability (retention of crystal lattice integrity): more stable than Form III
[2]; 72 hr
  Final Form: Form II
Grinding test
  Solid form After grinding: did not lose its crystal structure; also recorded: Form II
[3]; RH scanned from 10% to 0%, room temperature
  DVS mass (water) loss: about 2.7%
[3]; [6]
  Reversibility of DVS mass change: reversible
[3]; RH scanned from about 50% to 100%, room temperature (FIG. 8)
  DVS mass change: about 1%
[3]; room temperature
  Crystal form stability at high humidity (DVS): substantially stable even under high humidity

## NC[C@H]1COc2cc(F)cc(-c3c(Cl)cccc3Cl)c2O1 [Form III, (S)-(8-(2,6-dichlorophenyl)-6-fluoro-2,3-dihydrobenzo[b][1,4]dioxin-2-yl)methanamine hydrochloride]
[1]
  Stability on slurrying (summary of Table 6): less stable under some conditions
[2]; 20 hr
  Final Form: Form I + Form III

## NC[C@H]1COc2cc(F)cc(-c3c(Cl)cccc3Cl)c2O1 [I & III, (S)-(8-(2,6-dichlorophenyl)-6-fluoro-2,3-dihydrobenzo[b][1,4]dioxin-2-yl)methanamine hydrochloride]
[4]; Isopropyl acetate
  Final Form, Slurry @ 50° C.: by DSC (I and minor III)
  Final Form, Slurry @ RT: DSC (I and minor III)
[4]; Toluene
  Final Form, Slurry @ RT: DSC (I and minor III)
[5]; 110° C., ambient pressure, 4 hours
  Resulting solid form (XRPD): anhydrous Form I
[5]; oven at 50° C., under vacuum, 72 hours
  Resulting solid form (XRPD): anhydrous Form I
